Experimental data from ChEMBL document CHEMBL1145356, “Discovery of new C3aR ligands. Part 1: arginine derivatives” (Bioorg Med Chem Lett, 2007).

Columns and labels:
[1] = molecular target: T1, C3a anaphylatoxin chemotactic receptor (Homo sapiens, UniProt Q16581); experiment: Inhibition of human C3a receptor expressed on HMC1 cells by SPA assay; type: cell-based
T1 sequence (Q16581 whole entry): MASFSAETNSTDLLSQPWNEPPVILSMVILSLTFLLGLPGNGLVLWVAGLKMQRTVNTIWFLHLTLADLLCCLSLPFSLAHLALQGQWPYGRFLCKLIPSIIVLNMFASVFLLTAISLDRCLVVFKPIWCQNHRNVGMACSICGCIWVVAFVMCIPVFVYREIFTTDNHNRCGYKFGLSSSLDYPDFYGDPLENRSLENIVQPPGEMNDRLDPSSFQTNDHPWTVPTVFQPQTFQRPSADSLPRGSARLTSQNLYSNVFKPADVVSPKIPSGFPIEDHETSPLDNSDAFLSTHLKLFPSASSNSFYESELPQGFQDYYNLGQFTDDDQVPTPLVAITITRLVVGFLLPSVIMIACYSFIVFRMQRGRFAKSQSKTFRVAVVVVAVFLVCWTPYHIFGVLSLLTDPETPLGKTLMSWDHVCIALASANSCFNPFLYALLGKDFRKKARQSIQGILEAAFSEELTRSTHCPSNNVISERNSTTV

[2] = molecular target: T1, C3a anaphylatoxin chemotactic receptor; experiment: Agonist activity at C3a receptor expressed on HMC1 cells; type: functional, cell-based
[3] = Metabolic clearance in rat hepatocytes assessed per 10^6 cells; type: ADME, cell-based, Liver, Hepatocyte
[4] = Metabolic clearance in rat liver microsomes; type: ADME, Microsome
[5] = Permeability from apical to basolateral side in Caco-2 cells; type: ADME, cell-based; settings: human, read-out: permeability
[6] = Peak plasma concentration in ovalbumin-induced BALB/c mouse model of airway inflammation at 3 mg/ml aerosol after 30 mins; type: ADME, organism-based; settings: inhaled or intranasal
[7] = molecular target: CYP3A4 (Homo sapiens, UniProt P08684); experiment: Inhibition of CYP3A4 at 50 uM; type: ADME
[8] = Peak plasma concentration in ovalbumin-induced BALB/c mouse model of airway inflammation at 30 mg/kg, ip after 30 mins; type: ADME, organism-based; parameters: dose 30 mg/kg, route intraperitoneal
[9] = molecular target: CYP2D6 (Homo sapiens, UniProt P10635); experiment: Inhibition of CYP2D6 at 50 uM; type: ADME
[10] = Bioavailability in rats at 1 mg/kg, […]; type: ADME, organism-based; settings: rat, in vivo
[11] = Bioavailability in rats at 1 mg/kg, po; type: ADME, organism-based; settings: rat, in vivo
[12] = molecular target: T1, C3a anaphylatoxin chemotactic receptor; experiment: Antagonist activity at C3aR; type: functional

Sequence of CYP2D6 (P10635 whole entry): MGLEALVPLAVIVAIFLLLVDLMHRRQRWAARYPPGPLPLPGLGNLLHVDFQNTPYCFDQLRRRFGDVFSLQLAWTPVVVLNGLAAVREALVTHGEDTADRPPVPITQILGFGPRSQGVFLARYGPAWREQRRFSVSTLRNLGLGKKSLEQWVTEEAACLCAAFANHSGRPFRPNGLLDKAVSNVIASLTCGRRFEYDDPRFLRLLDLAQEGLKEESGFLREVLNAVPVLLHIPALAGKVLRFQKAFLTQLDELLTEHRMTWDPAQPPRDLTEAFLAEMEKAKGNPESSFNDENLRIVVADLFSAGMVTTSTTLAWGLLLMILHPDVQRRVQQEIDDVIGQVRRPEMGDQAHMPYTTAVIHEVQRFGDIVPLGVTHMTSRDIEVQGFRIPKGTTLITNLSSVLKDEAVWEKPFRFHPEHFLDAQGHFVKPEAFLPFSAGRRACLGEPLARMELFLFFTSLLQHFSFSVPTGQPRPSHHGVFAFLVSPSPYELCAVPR
Sequence of CYP3A4 (P08684 whole entry): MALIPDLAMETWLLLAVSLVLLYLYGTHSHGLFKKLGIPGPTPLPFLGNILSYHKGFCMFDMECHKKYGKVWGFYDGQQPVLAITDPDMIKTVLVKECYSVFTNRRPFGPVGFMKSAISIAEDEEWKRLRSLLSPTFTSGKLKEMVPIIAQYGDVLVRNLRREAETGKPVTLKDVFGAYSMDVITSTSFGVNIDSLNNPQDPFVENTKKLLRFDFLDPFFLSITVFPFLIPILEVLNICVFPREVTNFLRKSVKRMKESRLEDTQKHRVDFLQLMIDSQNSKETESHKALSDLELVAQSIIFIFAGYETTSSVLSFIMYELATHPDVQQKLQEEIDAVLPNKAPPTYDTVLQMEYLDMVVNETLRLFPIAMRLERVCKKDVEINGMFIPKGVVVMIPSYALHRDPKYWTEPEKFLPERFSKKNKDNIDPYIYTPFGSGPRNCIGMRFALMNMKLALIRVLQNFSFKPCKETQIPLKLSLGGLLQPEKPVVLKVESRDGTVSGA

Row | SMILES | IC50 [1] [nM] | also measured
1 | NC(N)=NCCC[C@@H](NC(=O)c1ccc(C(c2ccc(Cl)cc2)c2ccc(Cl)cc2)o1)C(=O)O | 158 | EC50 [2]: 126 nM
2 | N=C(N)NCCC[C@@H](NC(=O)c1ccc(-c2cccc(F)c2)o1)C(=O)O | 316 | –
3 | N=C(N)NCCC[C@@H](NC(=O)c1ccc(-c2cccc(Cl)c2)cc1)C(=O)O | 100000 | –
4 | N=C(N)NCCC[C@H](NC(=O)c1ccc(C(c2ccccc2)c2ccccc2)o1)C(=O)O | – | hepatocyte CLint [3]: 5 µL/min/1e6 cells; microsomal CLint [4]: 4 µL/min/mg; Papp A→B [5]: 0.4 ×10⁻⁶ cm/s; Cmax [6]: 27 ng/mL; inhibition at 50 µM [7]: 0%; Cmax [8]: 33800 ng/mL; inhibition at 50 µM [9]: 12%; bioavailability [10]: < 1%; bioavailability [11]: < 1%
5 | NC(N)=NCCC[C@@H](NC(=O)c1ccc(-c2ccc(F)c(Cl)c2)o1)C(=O)O | 200 | –
6 | N=C(N)NCCC[C@@H](NC(=O)c1ccc(C(c2ccccc2)c2ccccc2)cc1)C(=O)O | 794 | –
7 | N=C(N)NCCC[C@@H](NC(=O)c1ccc(-c2cccc(Cl)c2)o1)C(=O)O | 79.4 | EC50 [2]: 501 nM
8 | N=C(N)NCCC[C@@H](NC(=O)c1ccc(C(c2cccc(Cl)c2)c2cccc(Cl)c2)o1)C(=O)O | 15.8 | EC50 [2]: 20 nM
9 | N=C(N)NCCC[C@@H](NC(=O)c1ccc(-c2cc(Cl)ccc2Cl)o1)C(=O)O | 1580 | –
10 | CCOc1cccc(-c2ccc(C(=O)N[C@H](CCCN=C(N)N)C(=O)O)o2)c1 | 200 | –
11 | N=C(N)NCCC[C@@H](NC(=O)c1ccc(-c2cccc(CO)c2)o1)C(=O)O | 794 | –
12 | N=C(N)NCCC[C@@H](NC(=O)c1ccc(C(c2cccc(F)c2)c2cccc(F)c2)o1)C(=O)O | 31.6 | EC50 [12]: 1260 nM
13 | NC(N)=NCCC[C@@H](NC(=O)c1cccc(-c2cccc(Cl)c2)c1)C(=O)O | 794 | EC50 [12]: 3980 nM
14 | COc1cccc(-c2ccc(C(=O)N[C@H](CCCN=C(N)N)C(=O)O)o2)c1 | 316 | –
15 | N=C(N)NCCC[C@@H](NC(=O)c1ccc(-c2cccc(Cl)c2)s1)C(=O)O | 6310 | EC50 [12]: 15800 nM
16 | N=C(N)NCCC[C@H](NC(=O)COCC(c1ccccc1)c1ccccc1)C(=O)O | 501 | –
17 | Cc1ccc(Cl)cc1-c1ccc(C(=O)N[C@H](CCCN=C(N)N)C(=O)O)o1 | 794 | –
18 | NC(N)=NCCC[C@@H](NC(=O)N1CCN(C(c2ccccc2)c2ccccc2)CC1)C(=O)O | 50100 | –
19 | N#Cc1cccc(-c2ccc(C(=O)N[C@H](CCCNC(=N)N)C(=O)O)o2)c1 | 200 | –
20 | N=C(N)NCCC[C@@H](NC(=O)c1ccc(-c2csc3ccccc23)o1)C(=O)O | 316 | –
21 | NC(N)=NCCC[C@@H](NC(=O)c1ccc(-c2cccc3c2oc2ccccc23)o1)C(=O)O | 3980 | –
22 | Cc1cccc(-c2ccc(C(=O)N[C@H](CCCNC(=N)N)C(=O)O)o2)c1 | 126 | –
